Measurements: patent publication EP1052287A2, “Complex for transferring an anionic substance of interest into a cell” (TRANSGENE S.A., priority 1999, dated 2000)
Where no end group is shown, it is not given here.

How the values were obtained:
plasmid pTG11236 = test: Gel retardation assay (Example 4); type: binding
Procedure: (§1) Gel retardation assay was performed with C1qA (4-26) (SEQ ID NO:1) in several buffers: PBS, TBS, 5% glucose, or ultrafiltrated serum (YM10 Amicon membrane). DNA and peptides have been mixed at charge ratios [-/+] of [1:4], [1:1] and [1:0.2].
Gel retardation assay was performed with peptides SEQ ID NO: 1, SEQ ID NO: 2, SEQ ID NO: 3, SEQ ID NO: 7, SEQ ID NO: 8, SEQ ID NO: 9, SEQ ID NO: 10 , SEQ ID NO: 11, SEQ ID NO: 12, SEQ ID NO: 13, in various media : 5% glucose, 6% Elohes (Fresenius Kabi) and ultrafiltrated serum (YM10 Amicon membrane). Technical conditions are similar to Example 2. DNA and peptides have been mixed at 0.36, 1.44 and 1.8 nmoles of peptide per µg of DNA which correspond to the following charge ratios N/P: […]

[1] = Size of peptide/DNA complexes by quasi-elastic light scattering; type: physicochemical; conditions: complexes (-/+) [1:4], 6 µg DNA, 500 µl
Procedure: Sizes of complexes prepared with a plasmid DNA (PTG11033; see EP-A 890 32, 9.6 kb) and the C1qA (4-26) peptide (SEQ ID NO:1)see Table I) were evaluated. Complexes were formulated either in 5% glucose or in ultrafiltrated foetal calf serum (YM10 Amicon membrane). Formulation was made in 500 µl buffer, with 6 µg DNA and the quantity of peptide necessary to form a [1:4], [-:+] complex. As a control a polylysine SV40 NLS peptide was used. […] When oxidized, the dimerized C1qA peptide could form even smaller complexes, whatever the formulation buffer used. The reasonable sizes obtained in ultrafiltrated serum with C1qA peptides is an advantage for the use of this peptide rather than polylysine derivatives.
Complexes (-/+):[1:4], 6 µg DNA, 500 µl. Size measures: quasi-elastic light scattering, COULTER N4+.

plasmid pTGl1033 = test: Gel retardation assay, agarose gel electrophoresis (Example 2); type: binding
Procedure: as §1

[2] = 1.44 nmoles of peptide per µg of DNA
[3] = 1.8 nmoles of peptide per µg of DNA

Substance	retardation of the complexed plasmid DNA (plasmid pTG11236; [2])	retardation of the complexed plasmid DNA (plasmid pTG11236; [3])	Sizes in 5% glucose [1]	Sizes in ultrafiltrated serum [1]	gel retardation of DNA (plasmid pTGl1033; charge ratio [-/+] [1:1])	gel retardation of DNA (plasmid pTGl1033; charge ratio [-/+] [1:4], PBS, TBS, 5% glucose or ultrafiltrated serum, 0.8% agarose, TBE)
SEQ ID NO: 1: synthetic polypeptide consisting of SEQ ID NO:1, C1qA (4-26) of the C1q subunit of C1 complement factor (CRAPDGKKGEAGRPGRRGRPGLK; UniProt P02745 26-48, looked up, fragment)	complete retardation	complete retardation	1µm	300-500 nm	significative retardation	strong association of DNA to the peptides
SEQ ID NO: 3: C1qA (76-92) peptide (GIKGTKGSPGNIKDQPR; UniProt P02745 98-114, looked up, fragment)	complete retardation	complete retardation	–	–	–	–
SP-1052 oxidized: oxidized, dimerized C1qA (4-26) peptide (CRAPDGKKGEAGRPGRRGRPGLK; also: oxidized disulfide-linked dimer; UniProt P02745 26-48, looked up, fragment)	–	–	200 nm	300 nm	–	–
